Laboratory results taken from US20090143361A1, “Pyrido[3,2-E]Pyrazines, Process For Preparing The Same, And Their Use As Inhibitors Of Phosphodiesterase 10” (ELBION GMBH, priority 2007, published 2009).
Read-outs that look alike come from different tables or passages of the source.

Molecular target: PDE10 from pig striatum (Sus scrofa, UniProt A0A287B941)
Assay: Inhibition of PDE10 from pig striatum ([3H]-cAMP SPA)
Type: biochemical
Experimental: Phosphodiesterase isoenzyme 10 (PDE10) activity was determined in preparations of human recombinant PDE10A and PDE10 from pig striatum, respectively.
Striatum from male hybrid pigs (150 kg) were collected and frozen at −70° C.
At the day of preparation 0.5 g striatum was homogenised in 10 ml 50 mM Tris/Mg-buffer at 4° C. and centrifuged for one hour at 100000 g. The supernatant was removed and the pellet was resuspended in the same buffer, but containing 1% Triton and incubated for 45 min at 4° C. The membrane fraction was applied onto a 5 ml Hi Trap™ QHP column at the Akta-FPLC. After washing the column the bound PDE protein was eluted with an increasing sodium chloride gradient (O mM-500 mM sodium chloride) in 50 mM Tris/Mg-buffer at 4° C. in the presence of 1% Triton. […] The fractions with PDE10-activity were pooled and frozen in aliquots until use at −20° C.
(§1) PDE10 activity was determined in a one step procedure in microtiterplates. […] Nonspecific activity was tested without the enzyme. The reaction was initiated by addition of the substrate solution and was carried out at 37° C. for 30 minutes. Enzymatic activity was stopped by addition of 25 μl YSi-SPA-beads (Amersham-Pharmacia). One hour later the mixture was measured in a liquid scintillation counter for microtiterplates (Microbeta Trilux). To pipette the incubation mixture a robot Biomek (Fa. Beckman) is used. […] For determination of IC50 values the Hill-plot, 2-parameter-model, was used.
The phosphodiesterase isoenzyme 10 (PDE10) activity was determined in preparations of rat, pig and guinea pig striatum respectively. Striatum from male Wistar rats (180-200 g), male hybrid pigs (150 kg) and male guinea pigs (CRL (HA), 500 g) respectively were collected and frozen at −70° C.
At the day of preparation 0.5 g striatum was homogenized in 10 ml 50 mM Tris/Mg-buffer at 4° C. and centrifuged for one hour at 100000 g. The supernatant is called the cytosolic fraction and was removed and stored on ice. The pellet was resuspended in the same buffer, but containing 1% Triton and incubated for 45 min at 4° C. Both fractions were independently applied onto a 5 ml Hi Trap™ QHP column at the Akta-FPLC. After washing the columns the bound PDE protein was eluted with an increasing sodium chloride gradient (0 mM-500 mM sodium chloride) in 50 mM Tris/Mg-buffer at 4° C. for the cytosolic fraction and in the presence of 1% Triton for the membrane fraction. […] The fractions with PDE10-activity were pooled and frozen in aliquots until use at −20° C.
as §1, with “YSi-SPA beads” for “YSi-SPA-beads”

[1] = Table 7, read-out: PDE10 pig IC50
[2] = Table 8, read-out: PDE10 pig IC50

| SMILES | IC50 [2] | also measured |
| --- | --- | --- |
| Cc1nc(CCC(F)(F)F)n2c1c(Cl)nc1ccc(OCC(F)(F)F)nc12 [Example 1, 6-Chloro-7-methyl-2-(2,2,2-trifluoroethoxy)-9-(3,3,3-trifluoropropyl)imidazo[1,5-a]pyrido[3,2-e]pyrazine] | – | IC50 [1]: 10 to 100 nM |
| COc1ccc2nc(C)c3c(C)nc(C#Cc4ccccc4)n3c2n1 [Example 75, 2-Methoxy-6,7-dimethyl-9-(phenylethynyl)imidazo[1,5-a]pyrido[3,2-e]pyrazine] | 10 to 100 nM | – |
| COc1ccc2nc(C)c3c(C)nc(-c4cccc(Cl)c4)n3c2n1 [Example 48, 9-(3-Chlorophenyl)-2-methoxy-6,7-dimethylimidazo[1,5-a]pyrido[3,2-e]pyrazine] | < 10 nM | – |
| COc1ccc2nc(C)c3c(C)nc(-c4cc(F)ccc4Cl)n3c2n1 [Example 22, 9-(2-Chloro-5-fluorophenyl)-2-methoxy-6,7-dimethylimidazo[1,5-a]pyrido[3,2-e]pyrazine] | – | IC50 [1]: < 10 nM |
| COc1ccc2nc(C)c3c(C)nc(-c4ccc(C)cc4Cl)n3c2n1 [Example 12, 9-(2-Chloro-4-methylphenyl)-2-methoxy-6,7-dimethylimidazo[1,5-a]pyrido[3,2-e]pyrazine] | – | IC50 [1]: < 10 nM |
| COc1ccc2nc(C)c3c(C)nc(-c4ccc(C(F)(F)F)cc4)n3c2n1 [Example 67, 2-Methoxy-6,7-dimethyl-9-[4-(trifluoromethyl)phenyl]imidazo[1,5-a]pyrido[3,2-e]pyrazine] | 10 to 100 nM | – |
| COc1ccc2nc(C)c3c(C)nc(-c4cccc(OC)c4F)n3c2n1 [Example 15, 9-(2-Fluoro-3-methoxyphenyl)-2-methoxy-6,7-dimethylimidazo[1,5-a]pyrido[3,2-e]pyrazine] | – | IC50 [1]: 10 to 100 nM |
| COc1ccc2nc(C)c3c(C)nc(-c4ccc(C)cc4)n3c2n1 [Example 59, 2-Methoxy-6,7-dimethyl-9-(4-methylphenyl)imidazo[1,5-a]pyrido[3,2-e]pyrazine] | 10 to 100 nM | – |
| COc1ccc2nc(C)c3c(C)nc(-c4cccc(-c5ccccc5)c4)n3c2n1 [Example 71, 9-Biphenyl-3-yl-2-methoxy-6,7-dimethylimidazo[1,5-a]pyrido[3,2-e]pyrazine] | 10 to 100 nM | – |
| COc1ccc2nc(C)c3c(C)nc(-c4ccccc4OC(C)C)n3c2n1 [Example 54, 9-(2-Isopropoxyphenyl)-2-methoxy-6,7-dimethylimidazo[1,5-a]pyrido[3,2-e]pyrazine] | > 100 nM | – |
| COc1ccc2nc(C)c3c(C)nc(-c4cccs4)n3c2n1 [Example 68, 2-Methoxy-6,7-dimethyl-9-(2-thienyl)imidazo[1,5-a]pyrido[3,2-e]pyrazine] | 10 to 100 nM | – |
| COc1ccc2nc(C)c3c(C)nc(-c4ccc(F)nc4)n3c2n1 [Example 9, 9-(6-Fluoropyridin-3-yl)-2-methoxy-6,7-dimethylimidazo[1,5-a]pyrido[3,2-e]pyrazine] | – | IC50 [1]: 10 to 100 nM |
| COc1ccc2nc(C)c3c(C)nc(-c4cncnc4)n3c2n1 [Example 27, 2-Methoxy-6,7-dimethyl-9-pyrimidin-5-ylimidazo[1,5-a]pyrido[3,2-e]pyrazine] | – | IC50 [1]: < 10 nM |
| COc1ccc2nc(C)c3c(C)nc(-c4cc(Cl)ccc4Cl)n3c2n1 [Example 47, 9-(2,5-Dichlorophenyl)-2-methoxy-6,7-dimethylimidazo[1,5-a]pyrido[3,2-e]pyrazine] | < 10 nM | – |
| COc1ccc2nc(C)c3c(C)nc(CCC(F)(F)F)n3c2n1 [Example 42, 2-Methoxy-6,7-dimethyl-9-(3,3,3-trifluoropropyl)imidazo[1,5-a]pyrido[3,2-e]pyrazine] | 10 to 100 nM | – |
| COc1ccc2nc(C)c3c(C)nc(-c4cccc(C)c4)n3c2n1 [Example 65, 2-Methoxy-6,7-dimethyl-9-(3-methylphenyl)imidazo[1,5-a]pyrido[3,2-e]pyrazine] | < 10 nM | – |
| COc1ccc(-c2nc(C)c3c(C)nc4ccc(OC)nc4n23)cc1 [Example 55, 2-Methoxy-9-(4-methoxyphenyl)-6,7-dimethylimidazo[1,5-a]pyrido[3,2-e]pyrazine] | 10 to 100 nM | – |
| COc1ccc2nc(C)c3c(C)nc(-c4ccc(Cl)c(Cl)c4)n3c2n1 [Example 7, 9-(3,4-Dichlorophenyl)-2-methoxy-6,7-dimethylimidazo[1,5-a]pyrido[3,2-e]pyrazine] | – | IC50 [1]: 10 to 100 nM |
| COc1ccc2nc(C)c3c(C)nc(-c4ccc(F)cc4F)n3c2n1 [Example 8, 9-(2,4-Difluorophenyl)-2-methoxy-6,7-dimethylimidazo[1,5-a]pyrido[3,2-e]pyrazine] | – | IC50 [1]: 10 to 100 nM |
| COc1ccc2nc(C)c3c(C)nc(-c4ccccc4OC)n3c2n1 [Example 52, 2-Methoxy-9-(2-methoxyphenyl)-6,7-dimethylimidazo[1,5-a]pyrido[3,2-e]pyrazine] | 10 to 100 nM | – |
| COc1ccc2nc(C)c3c(C)nc(-c4ccc(OC(F)(F)F)cc4)n3c2n1 [Example 64, 2-Methoxy-6,7-dimethyl-9-[4-(trifluoromethoxy)phenyl]imidazo[1,5-a]pyrido[3,2-e]pyrazine] | 10 to 100 nM | – |
| CCCc1nc(C)c2c(C)nc3ccc(OCC)nc3n12 [Example 3, 2-Ethoxy-6,7-dimethyl-9-propylimidazo[1,5-a]pyrido[3,2-e]pyrazine] | – | IC50 [1]: 10 to 100 nM |
| COc1ccc2nc(C#N)c3c(C)nc(-c4ccccc4Cl)n3c2n1 [Example 111, 9-(2-chlorophenyl)-2-methoxy-7-methylimidazo[1,5-a]pyrido[3,2-e]pyrazine-6-carbonitrile] | – | IC50 (Table 9, cells marked pPDE10, read-out: IC50 (nM) (pPDE10)): < 10 nM |

Now from value to compound, other results behind:

| IC50 [2] | SMILES | also measured |
| --- | --- | --- |
| < 10 nM | COc1ccc2nc(C)c3c(C)nc(-c4ccc(Cl)cc4C(F)(F)F)n3c2n1 [Example 91, 9-[4-Chloro-2-(trifluoromethyl)phenyl]-2-methoxy-6,7-dimethylimidazo[1,5-a]pyrido[3,2-e]pyrazine] | – |
| 10 to 100 nM | COc1ccc2nc(C)c3c(C)nc(-c4cccc(C(=O)NC(C)C)c4)n3c2n1 [Example 103, N-Isopropyl-3-(2-methoxy-6,7-dimethylimidazo[1,5-a]pyrido[3,2-e]pyrazin-9-yl)benzamide] | – |
| < 10 nM | COc1ccc2nc(C)c3c(C)nc(-c4cccc(Cl)c4C)n3c2n1 [Example 87, 9-(3-Chloro-2-methylphenyl)-2-methoxy-6,7-dimethylimidazo[1,5-a]pyrido[3,2-e]pyrazine] | – |
| > 100 nM | COc1ccc2nc(C)c3c(C)nc(C#Cc4ccccc4OC)n3c2n1 [Example 98, 2-Methoxy-9-[(2-methoxyphenyl)ethynyl]-6,7-dimethylimidazo[1,5-a]pyrido[3,2-e]pyrazine] | – |
| 10 to 100 nM | COc1ccc2nc(C)c3c(C)nc(-c4cc(Cl)ccc4OC)n3c2n1 [Example 84, 9-(5-Chloro-2-methoxyphenyl)-2-methoxy-6,7-dimethylimidazo[1,5-a]pyrido[3,2-e]pyrazine] | – |
| < 10 nM | COc1ccc2nc(C)c3c(C)nc(-c4ccc(Cl)cc4C)n3c2n1 [Example 80, 9-(4-Chloro-2-methylphenyl)-2-methoxy-6,7-dimethylimidazo[1,5-a]pyrido[3,2-e]pyrazine] | – |
| 10 to 100 nM | CCNC(=O)c1cccc(-c2nc(C)c3c(C)nc4ccc(OC)nc4n23)c1 [Example 101, N-Ethyl-3-(2-methoxy-6,7-dimethylimidazo[1,5-a]pyrido[3,2-e]pyrazin-9-yl)benzamide] | – |
| < 10 nM | COc1ccc2nc(C)c3c(C)nc(-c4cc(F)ccc4C)n3c2n1 [Example 81, 9-(5-Fluoro-2-methylphenyl)-2-methoxy-6,7-dimethylmidazo[1,5-a]pyrido[3,2-e]pyrazine] | – |
| 10 to 100 nM | COc1ccc2nc(C)c3c(C)nc(C#Cc4ccccc4Cl)n3c2n1 [Example 96, 9-[(2-Chlorophenyl)ethynyl]-2-methoxy-6,7-dimethylimidazo[1,5-a]pyrido[3,2-e]pyrazine] | – |
| > 100 nM | COc1ccc2nc(C)c3c(C)nc(C#CC4CCCCC4)n3c2n1 [Example 95, 9-(Cyclohexylethynyl)-2-methoxy-6,7-dimethylimidazo[1,5-a]pyrido[3,2-e]pyrazine] | – |
| 10 to 100 nM | COc1ccc2nc(C)c3c(C)nc(-c4cc(F)ccc4OC)n3c2n1 [Example 83, 9-(5-Fluoro-2-methoxyphenyl)-2-methoxy-6,7-dimethylimidazo[1,5-a]pyrido[3,2-e]pyrazine] | – |
